Columns and labels:
GST-VCB protein complex [1] = target: T1, GST-VCB protein complex (Homo sapiens, UniProt P40337); assay: BODIPY FL VH032 (5)-mediated pVHL TR-FRET binding assay (competition); settings: for pVHL inhibitory activity in the TR-FRET binding assay: 2.1 pM to 30 μM; for pVHL inhibitory activity in the TR-FRET binding assay / IC50 / Ki: 90-min incubation; for IC50 / Ki: 4 nM BODIPY FL VH032 (5), 2 nM Tb-anti-GST; for Ki: read-out: Ki, pVHL TR-FRET binding assay (Cheng-Prusoff)
GST-VCB protein complex [2] = target: T1, GST-VCB protein complex; assay: BODIPY FL VH032 (5)-mediated pVHL FP binding assay (competition); settings: for pVHL inhibitory activity in the FP assay: 2.1 pM to 30 μM
Protocol: It was freshly prepared every time before an experiment. […] The FP signals were determined at the 90-min incubation time. […] The FP signals or the FP signal fold changes were plotted with the GraphPad Prism software. […] The FP Ki values were used to compare the relative binding affinities of the test ligands to pVHL.

VCB = VCB (Homo sapiens, UniProt P40337); settings: 10 nM FAM-HIF-1α, 15 nM VCB; read-out: Kd, reported FAM-HIF-1α peptide (19-mer)-based FP assay; cited from earlier work
GST-VCB protein complex [3] = target: T1, GST-VCB protein complex; assay: Determination of BODIPY FL VH032 (5) binding Kd to GST-VCB protein complex in a TR-FRET binding assay; settings: for Kd: 2 nM GST-VCB
Text: For the BODIPY FL VH032 (5)-mediated pVHL TR-FRET binding assay, a reported TR-FRET assay protocol (Lin, et al. (2014) Development of BODIPY FL vindoline as a novel and high-affinity pregnane X receptor fluorescent probe. Bioconjug Chem 25, 1664-1677) was followed except that an Echo 555 Acoustic Liquid Handler (Labcyte Inc., San Jose, CA) was used to dispense chemicals and BODIPY FL VH032 (5), GST-VCB and Tb-anti-GST antibody were used.
The pVHL TR-FRET binding assay buffer has a formula of 50 mM Tris pH 7.5, 0.1% Triton X-100, 0.01% bovine serum albumin, 1 mM DTT. It was freshly prepared every time before an experiment.
Dilutions of BODIPY FL VH032 (5, 1-to-2 dilutions, a concentration range of 0.06 nM to 500 nM) was incubated with 2 nM Tb-anti-GST along with, group 1: 2 nM GST-VCB+DMSO; group 2: 2 nM GST-VCB+VH298 (2, 30 μM); or group 3: without GST-VCB+DMSO. The TR-FRET signals were monitored every 30 min from 30 min to 300 min with a PHERAstar FS plate reader equipped with a TR-FRET optic module (excitation: 340 nm; emission 1: 520 nm; emission 2: 490 nm). The TR-FRET signals were fitted into GraphPad Prism 8.4.3 software (GraphPad Software; San Diego, CA) using a one-site total binding equation to derive curves for each group.

GST-VCB protein complex [4] = target: T1, GST-VCB protein complex; assay: Determination of BODIPY FL VH032 (5) binding Kd to GST-VCB protein complex in a FP binding assay; settings: VH298 30 μM, 1000 nM GST-VCB, 10 nM probe
Protocol: For the BODIPY FL VH032 (5)-mediated pVHL FP binding assay, the general TR-FRET assay protocol was followed except that the […] antibody was not added and the PHERAstar FS plate reader (BMG Labtech; Durham, NC) was equipped with a FP optic module (Excitation: 485 nm, Emission: 520 nm) to read FP assay signals.
The pVHL FP assay buffer has a formula of 25 mM HEPES pH 7.4, 0.01% Tween-20, 0.5 mM DTT, 0.01% BSA. It was freshly prepared every time before an experiment.
BODIPY FL VH032 (5, 10 nM) was incubated with dilutions of GST-VCB (1-to-2 dilutions, a concentration range of 0.03 nM to 1 μM) along with the DMSO group or VH298 (2, 30 μM) group. In addition, BODIPY FL VH032 (5, 10 nM) was incubated with DMSO only, but without GST-VCB. The FP signals were determined with the PHERAstar FS plate reader. The representative data collected at 90-min incubation time was plotted with the GraphPad Prism software using a one-site total binding equation to derive curves for each group. The binding affinity Kd values were derived from the DMSO with GST-VCB.

NCCCCNC(=O)COc1cccc2c1C(=O)N(C1CCC(=O)NC1=O)C2=O (stereo not drawn)
pVHL inhibitory activity in the TR-FRET binding assay (GST-VCB protein complex [1]): inactive | pVHL inhibitory activity in the FP assay (GST-VCB protein complex [2]; 90-min incubation): did not show pVHL inhibitory activity

Cc1ncsc1-c1ccc(CNC(=O)[C@@H]2C[C@@H](O)CN2C(=O)[C@@H](NC(=O)OC(C)(C)C)C(C)(C)C)cc1 [BOC-VH032 (8)]
IC50 (GST-VCB protein complex [1]; 2 nM GST-VCB): 4900 nM | Ki (GST-VCB protein complex [1]; 2 nM GST-VCB): 2100 nM | IC50 (GST-VCB protein complex [2]; 10 nM BODIPY FL VH032 (5), 100 nM GST-VCB, 90-min incubation): 16300 nM | Ki (GST-VCB protein complex [2]; 10 nM BODIPY FL VH032 (5), 100 nM GST-VCB, 90-min incubation, read-out: Ki, pVHL FP assay (Nikolovska-Coleska method)): 8000 nM | Kd (VCB): 6500 nM

CC1=CC(C)=[N+]2C1=Cc1ccc(CCC(=O)NCCOCCOCCOCCOCC(=O)NC(C(=O)N3CC(O)CC3C(=O)NCc3ccc(-c4scnc4C)cc3)C(C)(C)C)n1[B-]2(F)F [BODIPY FL VH032 (5), (2S,4R)-1-4S)-2-(tert-butyl)-21-(5,5-difluoro-7,9-Dimethyl-5H-5Λ^4,6Λ^4-dipyrrolo[1,2-c:2′,1′-f][1,3,2]diazaborinin-3-yl)-4,19-dioxo-6,9,12,15-tetraoxa-3,18-diazahenicosanoyl)-4-hydroxy-N-(4-O-methylthiazol-5-yl)benzyl)pyrrolidine-2-carboxamide]
Kd (GST-VCB protein complex [3]; 90-min incubation, 2 nM Tb-anti-GST): 3.01 nM | Kd (GST-VCB protein complex [3]; 120-min incubation): 3.04 nM | Kd (GST-VCB protein complex [3]; 150-min incubation): 3.01 nM | Kd (GST-VCB protein complex [3]; 180-min incubation): 2.98 nM | Kd (GST-VCB protein complex [3]; 240-min incubation): 2.98 nM | Kd (GST-VCB protein complex [3]; 300-min incubation): 3.04 nM | highest TR-FRET signal fold change, 2 nM GST-VCB+DMSO / without GST-VCB+DMSO (GST-VCB protein complex [3]; at 3.9 nM BODIPY FL VH032 (5), 90 min): 16.2 fold | highest TR-FRET signal fold change, 2 nM GST-VCB+DMSO / 2 nM GST-VCB+VH-298 (2) (GST-VCB protein complex [3]; at 7.8 nM BODIPY FL VH032 (5), 90 min): 15.1 fold

Cc1ncsc1-c1ccc([C@H](C)NC(=O)[C@@H]2C[C@@H](O)CN2C(=O)[C@@H](N)C(C)(C)C)cc1 [Me-VH032 amine (7)]
IC50 (GST-VCB protein complex [1]; 2 nM GST-VCB): 7900 nM | Ki (GST-VCB protein complex [1]; 2 nM GST-VCB): 3400 nM | concentration at which the compound disturbed the FP assay detection (assay interference) (GST-VCB protein complex [2]; FP assay, not observed in TR-FRET): ≥ 370 nM

Cc1ncsc1-c1ccc(CNC(=O)[C@@H]2C[C@@H](O)CN2C(=O)[C@@H](NC(=O)COCCOCCOCCOCCN)C(C)(C)C)cc1 [VH032-PEG4-amine (10)]
IC50 (GST-VCB protein complex [1]; 2 nM GST-VCB): 5.9 nM

Cc1ncsc1-c1ccc(CNC(=O)[C@@H]2C[C@@H](O)CN2C(=O)[C@@H](NC(=O)C2(C#N)CC2)C(C)(C)C)cc1 [VH298 (2), (2S,4R)-1-((S)-2-(1-Cyanocyclopropanecarboxamido)-3,3-dimethylbutanoyl)-4-hydroxy-N-(4-(4-methylthiazol-5-yl)benzyl)pyrrolidine-2-carboxamide]
TR-FRET signal of the positive control group (GST-VCB protein complex [1]; VH298 30 μM, 2 nM GST-VCB, 4 nM probe, all incubation times 30 to 300 min): 278.7±4.5 RTU | FP signal, GST-VCB-mediated non-specific interaction (GST-VCB protein complex [4]): 43.0 mP | FP signal of the positive control (GST-VCB protein complex [2]; VH298 30 μM, 10 nM probe, 100 nM GST-VCB, 90 min): 14.5 mP

Cc1sc2c(c1C)C(c1ccc(Cl)cc1)=N[C@@H](CC(=O)NCCCCNC(=O)COc1cccc3c1C(=O)N(C1CCC(=O)NC1=O)C3=O)c1nnc(C)n1-2 (stereo partly drawn) [dBET1 (12)]
pVHL inhibitory activity in the TR-FRET binding assay (GST-VCB protein complex [1]): inactive | pVHL inhibitory activity in the FP assay (GST-VCB protein complex [2]; 90-min incubation): did not show pVHL inhibitory activity

From patent US20240002458A1, “NOVEL VHL SMALL MOLECULE PROBES” (St. Jude Children's Research Hospital, priority 2020, published 2024)
